# Experimental data from patent US8753841B2, “Enzyme that catalyzes a peptide-forming reaction from a carboxy component and an amine component, microbe producing the same, and a method of producing a dipeptide using the enzyme or microbe” (Ajinomoto Co., Inc., priority 2002, dated 2014).
# *: point of attachment. Boc = CC(C)(C)OC(=O)*
# B1: Papain: thiol endopeptidase described in EP 359399B1, purified enzyme manufactured by Sigma (protein, UniProt P00784 134-345, looked up)
# Papain: IPEYVDWRQKGAVTPVKNQGSCGSCWAFSAVVTIEGIIKIRTGNLNEYSEQELLDCDRRSYGCNGGYPWSALQLVAQYGIHYRNTYPYEGVQRYCRSREKGPYAAKTDGVRQVQPYNEGALLYSIANQPVSVVLEAAGKDFQLYRGGIFVGPCGNKVDHAVAAVGYGPNYILIKNSWGTGWGENGYIRIKRGTGNSYGVCGLYTSSFYPVKN
# How the values were obtained:
# [1] = system: peptide-forming enzyme from Empedobacter brevis strain FERM BP-8113; test: Enzyme inhibitors: effect on L-alanyl-L-glutamine production by the Mono S fraction enzyme; format: biochemical; conditions: for inhibition of the enzyme by serine enzyme inhibitors (in words): pH 9.0, 25° C.
# [2] = Comparison of ability to catalyze peptide formation with known enzymes; format: biochemical; conditions: enzyme of present invention = 100.0
# Excerpt: The peptide-forming ability of the present enzyme was compared with that of known enzymes. Carboxypeptidase Y described in EP 278787A1 and the thiol endopeptidases (ficin, papain, bromelain, and chymopapain) described in EP 359399B1 were used as the known enzymes, and they were used in the form of purified enzymes (manufactured by Sigma). The enzyme uniformly purified in Example 3 was used as a source of the present enzyme of the present invention. […] As has been described above, the present enzyme was verified to have an extremely high peptide production rate unlike any known enzyme in the prior art. Furthermore, the enzyme of the present invention is a dimer having a molecular weight of about 75,000. In contrast, the molecular weight of the carboxypeptidase Y has been reported to be about 61,000, while the molecular weight of thiol endopeptidase has been reported to be about 23,000 to 36,000. Thus, the L-alanyl-L-glutamine production rate of the enzyme of the present invention as compared to those of the carboxypeptidase Y and the thiol endopeptidase is even greater when the rate is expressed per molecular weight than when it is expressed per unit weight as indicated in the examples.
# [3] = system: enzyme derived from Sphingobacterium sp. strain FERM BP-8124; test: Substrate specificity of enzyme derived from Sphingobacterium sp.; format: biochemical; design: key to Produced peptide (mM): +: those peptides for which production was confirmed but which were unable to be quantified due to the absence of a standard; a trace amount; conditions: carboxy component 100 mM, 0.33 units enzyme, pH 9.0, 25° C., 1.5 hours; for Produced peptide (mM): Table 15-4
# [4] = system: peptide-forming enzyme from Empedobacter brevis strain FERM BP-8113; test: Substrate specificity of enzyme (peptide production from carboxy and amine components); format: biochemical; design: key to Formed peptide (mM): +: those peptides for which production was confirmed but which were unable to be quantified due to the absence of a standard; a trace amount; conditions: L-amino acid methyl ester hydrochloride 100 mM, pH 9.0, 25° C., 3 hours
# Excerpt: Ester specificity was examined in the case of using L-amino acid ester for the carboxy component. […] HCl represents hydrochloride in Table 4.
# Peptide production was examined in the case of using L-alanine methyl ester for the carboxy component and using various L-amino acids for the amine component.
# Peptide production was examined in the case of using various types of L-amino acid methyl esters for the carboxy component and using L-glutamine for the amine component. […] Furthermore, Tween-80 was added to the reaction system to a final concentration of 0.1% in the case of using L-Trp-OMe and L-Tyr-OMe.
# [5] = system: Empedobacter brevis strain FERM BP-8113 microbial cells; test: Production of peptide using microbial cells of Empedobacter brevis; format: cell-based; conditions: 1 mL 100 g/L cell suspension + 1 mL buffer with 200 mM carboxy component, 400 mM amino acid, 10 mM EDTA, pH 9.0, 18° C., 2 hours
# Experimental: A 50 mL medium (pH 6.2) containing 5 grams (g) of glucose, 5 g of ammonium sulfate, 1 g of monopotassium phosphate, 3 g of dipotassium phosphate, 0.5 g of magnesium sulfate, 10 g of yeast extract and 10 g of peptone in 1 liter (L) was transferred to a 500 mL Sakaguchi flask and sterilized at 115° C. for 15 minutes.
# Microbial cells were collected by centrifuging (10,000 rounds per minute (rpm), 15 minutes) the culture broth obtained in Example 1, followed by suspending them to a concentration of 100 g/L in 100 mM borate buffer (pH 9.0) containing 10 mM EDTA. After respectively adding 1 mL of the suspension to 1 mL each of 100 mM borate buffer solutions (pH 9.0) containing 10 mM EDTA, 200 mM of the following carboxy components, and 400 mM of the following amino acids to make a final volume of 2 mL, the reaction was carried out at 18° C. for 2 hours.
# [6] = system: peptide-forming enzyme from Empedobacter brevis strain FERM BP-8113; test: Substrate specificity of enzyme (peptide production from carboxy and amine components); format: biochemical; conditions: pH 9.0, 25° C., 3 hours; for Formed peptide: L-amino acid amide hydrochloride 100 mM as carboxy component, L-amino acid 150 mM
# [7] = system: peptide-forming enzyme from Empedobacter brevis strain FERM BP-8113; test: as above; format: biochemical; design: key: +: those peptides for which production was confirmed but which were unable to be quantified due to the absence of a standard; a trace amount; conditions: 0.1 unit enzyme, 25° C.
# [8] = system: peptide-forming enzyme from Empedobacter brevis strain FERM BP-8113; test: as above; format: biochemical; design: key: +: those for which production was confirmed but which were unable to be quantified due to the absence of a standard; a trace amount
# [9] = inhibitor at 10 mM, borate buffer pH 9.0, 25° C., 5 minutes, 100 = absence of enzyme inhibitor
# [10] = Table 15-3, amine component 150 mM
# [11] = carboxy component 100 mM, amine component 150 mM, reaction time 3 hr
# [12] = oligopeptide production, amount of enzyme 0.2 unit, pH 9.0, 25° C., 3 hours
# [13] = Table 15-1, amine component 150 mM
# Chain of enzyme derived from Sphingobacterium sp. strain FERM BP-8124 (as listed by the source): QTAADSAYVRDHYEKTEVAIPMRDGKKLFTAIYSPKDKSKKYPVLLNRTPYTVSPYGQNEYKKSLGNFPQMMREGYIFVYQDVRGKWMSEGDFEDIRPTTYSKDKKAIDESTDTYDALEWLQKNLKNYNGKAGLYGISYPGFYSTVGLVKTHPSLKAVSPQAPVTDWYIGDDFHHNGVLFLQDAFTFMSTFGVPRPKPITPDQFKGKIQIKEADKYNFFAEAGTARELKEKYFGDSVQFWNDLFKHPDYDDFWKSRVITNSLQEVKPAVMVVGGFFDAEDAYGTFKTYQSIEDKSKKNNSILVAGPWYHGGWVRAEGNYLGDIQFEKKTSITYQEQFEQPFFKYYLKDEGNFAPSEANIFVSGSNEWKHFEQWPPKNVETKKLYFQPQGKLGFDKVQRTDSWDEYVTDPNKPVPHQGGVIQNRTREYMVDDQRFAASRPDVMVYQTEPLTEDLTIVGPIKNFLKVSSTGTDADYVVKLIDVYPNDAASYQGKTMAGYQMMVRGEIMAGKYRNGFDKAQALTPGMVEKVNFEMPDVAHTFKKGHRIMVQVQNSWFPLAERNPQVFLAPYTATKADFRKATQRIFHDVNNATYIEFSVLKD
molecule,measurement,setting,value
"O=C(O)CN(CCN(CC(=O)O)CC(=O)O)CC(=O)O [EDTA, ethylene diamine tetraacetic acid]",Relative activity of L-Ala-L-Gln production (%),[1]; [9],96%
O=C(O)CI [Monoiodoacetate],Relative activity of L-Ala-L-Gln production (%),[1]; pH 9,101%
CCN1C(=O)C=CC1=O [N-Ethyl maleimide],Relative activity of L-Ala-L-Gln production (%),[1]; [9],110%
O=S(=O)(F)Cc1ccccc1 [Phenylmethylsulfonyl fluoride],Relative activity of L-Ala-L-Gln production (%),[1]; [9],115%
same,inhibition of the enzyme by serine enzyme inhibitors (in words),"[1]; inhibitor at 10 mM, 5 minutes",not inhibited
c1cnc2c(c1)ccc1cccnc12 [o-Phenanthroline],Relative activity of L-Ala-L-Gln production (%),[1]; [9],96%
"N=C(N)Nc1ccc(C(=O)Oc2ccc([N+](=O)[O-])cc2)cc1 [p-Nitrophenyl-p′-guanidino benzoate, p-nitrophenyl-p′-guanidinobenzoate]",Relative activity of L-Ala-L-Gln production (%),[1]; [9],0.1%
same,inhibition of the enzyme by serine enzyme inhibitors (in words),"[1]; inhibitor at 10 mM, 5 minutes",inhibited
Bromelain,Ratio of L-Ala-L-Gln production rate per enzyme unit weight,[2],0.0010
"Chymopapain: thiol endopeptidase described in EP 359399B1, purified enzyme manufactured by Sigma",Ratio of L-Ala-L-Gln production rate per enzyme unit weight,[2],0.0013
Ficin,Ratio of L-Ala-L-Gln production rate per enzyme unit weight,[2],0.0017
Gly-L-His,Produced peptide,[3]; [10],36.2 mM
same,Formed peptide,[4]; L-amino acid 150 mM,31.6 mM
same,Formed peptide,[5],22.1 mM
Gly-L-Phe,Produced peptide,[3]; [10],20.0 mM
same,Produced peptide,"[6]; oligopeptide production, amount of enzyme 0.1 unit",17.3 mM
same,Formed peptide,[4]; L-amino acid 150 mM,44.0 mM
H-2-Nal-H-Gln-OH,Produced peptide (mM),"[7]; carboxy component 40 mM, amine component 40 mM, reaction time 3 hr",tr
H-Ala-2-Nal-OH,Produced peptide (mM),"[8]; carboxy component 20 mM, amine component 20 mM, 0.1 unit enzyme, 25° C., reaction time 3 hr",+
H-CHA-Phe-OH,Produced peptide (mM),"[8]; carboxy component 40 mM, amine component 40 mM, 0.1 unit enzyme, 25° C., reaction time 3 hr",+
H-Lys(Boc)-Gln-OH,Produced peptide (mM),"[8]; carboxy component 100 mM, amine component 150 mM, 0.1 unit enzyme, 25° C., reaction time 2 hr",+
H-Ser(tBu)-Gln-OH,Produced peptide (mM),"[7]; carboxy component 100 mM, amine component 150 mM, reaction time 2 hr",tr
H-p-F-Phe-H-Gln-OH,Produced peptide (mM),[7]; [11],tr
H-t-Leu-H-Gln-OH,Produced peptide (mM),[7]; [11],tr
H—Cl—F-Phe-H-Gln-OH,Produced peptide (mM),"[7]; carboxy component 25 mM, amine component 50 mM, reaction time 3 hr",tr
H—N—Me-Ala-Phe-OH,Produced peptide (mM),[7]; [11],tr
L-Ala-Gly-Gly-L-Phe-L-Met,Produced peptide (mM),[8]; [12],+
L-Ala-Gly-L-Phe,Produced peptide (mM),"[8]; oligopeptide production, amount of enzyme 0.1 unit, pH 9.0, 25° C., 3 hours",+
L-Ala-L-Arg,Produced peptide,[3]; [13],72.2 mM
same,Formed peptide,[5],72.1 mM
L-Ala-L-His,Produced peptide,[3]; [13],73.6 mM
same,Produced peptide (mM),[3]; amine component 150 mM,tr
same,Formed peptide,[6],3.9 mM
same,Formed peptide,[5],52.1 mM
L-Ala-L-Leu,Produced peptide,[3]; [13],33.0 mM
same,Formed peptide,[5],38.2 mM
L-Ala-L-Met,Produced peptide,[3]; [13],86.9 mM
same,Produced peptide (mM),[3]; amine component 150 mM,tr
same,Formed peptide,[6],3.4 mM
same,Formed peptide,[5],68.3 mM
L-Ala-L-Phe,Produced peptide,[3]; [13],69.5 mM
same,Formed peptide,[5],62.4 mM
L-Ala-L-Phe-L-Met,Produced peptide (mM),[8]; [12],+
L-Ala-L-Ser,Produced peptide,[3]; [13],43.8 mM
same,Formed peptide,[5],51.3 mM
L-Ile-L-Met,Produced peptide,[3]; [10],5.1 mM
same,Formed peptide,[4]; L-amino acid 150 mM,10.0 mM
same,Formed peptide,[5],8.3 mM
L-Met-L-Phe,Produced peptide,[3]; [10],8.9 mM
same,Formed peptide,[4]; L-amino acid 150 mM,34.0 mM
same,Formed peptide,[5],28.5 mM
L-Phe-L-Gln,Produced peptide,"[3]; Table 15-2, L-Gln 150 mM",0.8 mM
same,Formed peptide,[6],0.2 mM
same,Formed peptide,[4]; 150 mM L-glutamine,0.9 mM
L-Ser-L-Gln,Produced peptide,"[3]; Table 15-2, L-Gln 150 mM",12.9 mM
same,Formed peptide,[4]; 150 mM L-glutamine,24.0 mM
L-Ser-L-Met,Produced peptide,[3]; [10],7.6 mM
same,Formed peptide,[4]; L-amino acid 150 mM,12.5 mM
L-Ser-L-Phe,Produced peptide,[3]; [10],4.3 mM
same,Formed peptide,[4]; L-amino acid 150 mM,20.3 mM
L-Ser-L-Ser,Produced peptide,[3]; [10],9.9 mM
same,Formed peptide,[4]; L-amino acid 150 mM,38.0 mM
same,Formed peptide,[5],29.0 mM
L-Thr-Gly,Produced peptide,[3]; [10],0.4 mM
same,Formed peptide,[4]; L-amino acid 150 mM,9.4 mM
L-Thr-L-Ala,Produced peptide,[3]; [10],5.8 mM
same,Formed peptide,[4]; L-amino acid 150 mM,9.4 mM
L-Thr-L-Gln,Produced peptide,"[3]; Table 15-2, L-Gln 150 mM",36.1 mM
same,Formed peptide,[6],0.3 mM
same,Formed peptide,[4]; 150 mM L-glutamine,81.9 mM
L-Thr-L-Leu,Produced peptide,[3]; [10],15.3 mM
same,Formed peptide,[4]; L-amino acid 150 mM,28.4 mM
same,Formed peptide,[5],23.0 mM
L-Thr-L-Met,Produced peptide,[3]; [10],28.9 mM
same,Formed peptide,[4]; L-amino acid 150 mM,38.6 mM
L-Thr-L-Val,Produced peptide,[3]; [10],1.3 mM
same,Formed peptide,[4]; L-amino acid 150 mM,0.7 mM
L-Tyr-L-Gln,Produced peptide,"[3]; Table 15-2, L-Gln 150 mM",0.6 mM
same,Formed peptide,[4]; 150 mM L-glutamine,3.4 mM
L-Val-L-Gln,Produced peptide,"[3]; Table 15-2, L-Gln 150 mM",8.2 mM
same,Formed peptide,[4]; 150 mM L-glutamine,15.4 mM
L-Val-L-Met,Produced peptide,[3]; [10],6.8 mM
same,Formed peptide,[4]; L-amino acid 150 mM,10.3 mM
same,Formed peptide,[5],10.5 mM
L-Val-L-Phe,Produced peptide,[3]; [10],1.0 mM
same,Formed peptide,[4]; L-amino acid 150 mM,6.1 mM
L-Val-L-Ser,Produced peptide,[3]; [10],31.9 mM
same,Formed peptide,[4]; L-amino acid 150 mM,30.8 mM
α-L-Asp-L-Gln,Produced peptide,"[3]; Table 15-2, L-Gln 150 mM",0.05 mM
same,Formed peptide (mM),[4]; 150 mM L-glutamine,tr
B1,Ratio of L-Ala-L-Gln production rate per enzyme unit weight,[2],0.0021
